What is called IC50 is the midpoint of a concentration-inhibition curve. A low value points to inhibition by little substance. By inhibition is commonly meant the relative decrease from the control value, in per cent. The low end stands for a response near the control, the high end for a response far below the control.

In assay [1] the target is collagenase. Briefly: FALGPA hydrolysis assay (compound purity […]); also retained in Target Binding ultrafiltration UHPLC-MS (RA […]). The assay is classed as biochemical, Hathewaya histolytica.
Assay [2] addresses collagenase. In words: FALGPA hydrolysis assay; also retained in Target Binding ultrafiltration UHPLC-MS (RA […]). The class given is biochemical, Hathewaya histolytica.
A further assay has as its target T1, mushroom tyrosinase (Agaricus bisporus, UniProt C7FF04).
T1 construct: gene PPO3; T3824-250KU, Sigma-Aldrich
In words: spectrophotometric L-tyrosine to dopachrome assay, […] nm; also retained in Target Binding (RA […], reference). The assay is classed as biochemical.

T1 sequence (C7FF04 2-392): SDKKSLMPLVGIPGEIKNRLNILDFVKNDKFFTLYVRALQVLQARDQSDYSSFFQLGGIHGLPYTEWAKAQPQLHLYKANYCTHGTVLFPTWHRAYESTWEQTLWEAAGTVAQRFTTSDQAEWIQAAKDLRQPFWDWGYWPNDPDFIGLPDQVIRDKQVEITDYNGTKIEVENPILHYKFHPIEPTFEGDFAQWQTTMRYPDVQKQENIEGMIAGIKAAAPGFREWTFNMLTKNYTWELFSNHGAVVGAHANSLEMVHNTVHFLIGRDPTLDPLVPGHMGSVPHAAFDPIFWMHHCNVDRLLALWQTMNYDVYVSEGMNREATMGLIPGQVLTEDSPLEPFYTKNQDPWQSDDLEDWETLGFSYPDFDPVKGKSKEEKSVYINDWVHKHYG

In the case of `O=C1C[C@@H]2c3ccccc3O[C@H]3c4ccc(O)c(O)c4-c4c(O)cc(O)c1c4[C@H]23` [compound 2, nor-ohioensin D], the IC50 at collagenase [1] is 167 µM.

Molecule `O=C1C[C@@H]2c3ccccc3O[C@H]3c4cc(O)ccc4-c4c(O)cc(O)c1c4[C@H]23` [compound 1, ohioensin A] showed an IC50 at collagenase [2] of 72 µM. Moreover, the inhibition at 200 µM at mushroom tyrosinase amounted to 30%.

For the origin of these results see paper PMC8309073, “Collagenase and Tyrosinase Inhibitory Effect of Isolated Constituents from the Moss Polytrichum formosum” (Plants, 2021).
